The experiment has as its target T1, recombinant human EP-2 receptor (Homo sapiens, UniProt P43116).
T1 construct: cell line stably transfected with full length cDNA encoding human Prostaglandin E2 was established; expressed in transfected cells; host or cells: CHO (Chinese hamster ovary) cells, stably transfected
As to the kind of experiment: in vitro antagonist potency against recombinant human EP-2 receptor in CHO cells (cAMP, Protocol 1). Type of experiment: cell-based. The note with it: functional Ki by Cheng-Prusoff from IC50; CHO cells stimulated with PGE2 (5 nM); cAMP readout; read-out: EP2 Ki. The source says:
1.0 Measurement of in vitro Antagonist Potency (IC50) of Compounds Against Recombinant Human Prostaglandin E2 Receptor in CHO Cells
The prostaglandin E2 (EP-2) receptor is Gs coupled and agonism of the receptor by PGE2 results in activation of intracellular adenylate cyclase enzymes that synthesise the second messenger signalling molecule, adenosine 3′,5′-cyclic monophosphate (cAMP). […] Decreases in cAMP levels following treatment of stimulated recombinant EP-2 cells with potential antagonist compounds were measured and potency (IC50) calculated as follows. A Chinese hamster ovary (CHO) cell line stably transfected with full length cDNA encoding human Prostaglandin E2 was established using standard molecular biology methods. Test compounds were dissolved in dimethyl sulphoxide (DMSO) at 4 mM. 11 point half log unit increment dilution series of test compound were prepared in DMSO then diluted 1 in 40 in a buffer comprised of phosphate buffered saline (PBS) and 0.05% pluronic F-127 surfactant. Freshly cultured cells at 80-90% confluence were harvested and re-suspended in 90% growth media/10% DMSO. The cells were frozen using a planar freezer and stored in frozen aliquots in cryovials in liquid nitrogen until the day of the experiment. A vial of cells was defrosted in a 37° C. water bath for 2 min, then transferred to 10 ml of Dulbecco's Modified Eagle's Medium (DMEM). The cells were then centrifuged for 5 min at 1000 g and the pellet re-suspended at 1,000,000 cells/ml in DMEM. 5,000 cells (5 ul) were added to 5 ul of the compound dilution series in a 384 well assay plate and pre-incubated for 30 min at 37° C. 5 ul of agonist (15 nM PGE2 in PBS to give 5 nM FAC) was added and plates further incubated for 90 min at 37° C. The relative cAMP concentration in each well was then measured using a ? -galactosidase enzyme fragment complementation method purchased in kit form as the Discoverx cAMP II kit from GE Healthcare, UK. […] Sigmoidal curves were fitted to plots of log10 inhibitor concentration vs. percent effect. IC50 estimates were determined as the concentration of test compound giving an effect half way between the bottom and top asymptotes of the sigmoidal dose response curve. Each experiment included an IC50 determination for the literature compound as a standard to track assay consistency and allow fair comparison between values obtained in different experiments. The EC50 of PGE2 is used in combination with the ligand concentration in the assay to determine Ki values for antagonist dose responses using the Cheng-Prusoff equation. Consequently an agonist dose response curve is carried out for each experiment using the same incubation as the antagonist plate.

T1 sequence (P43116 whole entry): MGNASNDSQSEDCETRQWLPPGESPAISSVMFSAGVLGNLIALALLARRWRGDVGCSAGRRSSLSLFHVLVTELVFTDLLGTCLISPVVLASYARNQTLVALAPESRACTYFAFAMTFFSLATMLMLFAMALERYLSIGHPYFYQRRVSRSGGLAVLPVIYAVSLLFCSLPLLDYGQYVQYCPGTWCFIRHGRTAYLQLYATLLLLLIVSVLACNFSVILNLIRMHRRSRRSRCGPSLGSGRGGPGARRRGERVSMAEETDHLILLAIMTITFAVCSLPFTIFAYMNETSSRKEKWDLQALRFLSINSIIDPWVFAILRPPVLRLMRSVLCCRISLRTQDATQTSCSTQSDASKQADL

In general, Ki refers to the equilibrium dissociation constant of an inhibitor or competing ligand from its target. For the molecule `COc1ccc2cc(OCC3(C(=O)O)CN(C(=O)c4ccc(Cl)cc4)C3)ccc2c1` [Example 13], the Ki stood at 6 nM.

Turning to `Cc1ccc2cc(OCC3(C(=O)O)CN(C(=O)c4cccc(Cl)c4)C3)ccc2n1` [Example 26], the Ki was 125 nM.

`O=C(c1ccc(F)cc1)N1CC(COc2ccc(Br)cc2)(C(=O)O)C1` [Example 53, 3-[(4-Bromophenoxy)methyl]-1-(4-fluorobenzoyl)azetidine-3-carboxylic acid]: the inhibition constant (Ki) amounted to 615 nM.

As to `COc1ccc2cc(OCC3(C(=O)O)CN(C(=O)Nc4ccccc4F)C3)ccc2c1` [Example 66], the Ki worked out at 102 nM.

For `O=C(c1ccc(F)cc1)N1CC(COc2ccc(-c3cc4ccccc4nn3)cc2)(C(=O)O)C1` [Example 8], the Ki was 2.3 nM.

As for `O=C(c1ccc(F)cc1)N1CC(COc2cnc(-c3ccc(Cl)cc3)nc2)(C(=O)O)C1` [Example 11], the Ki amounted to 10.5 nM.

As for `Cc1ccc2cc(OCC3(C(=O)O)CN(C(=O)c4ccc(Cl)cc4)C3)ccc2n1` [Example 23], the Ki worked out at 101 nM.

Take `CCOc1ccccc1C(=O)N1CC(COc2ccc3cc(OC)ccc3c2)(C(=O)O)C1` [Example 18]: the Ki was determined as 19.7 nM.

For the molecule `Cc1ccc2cc(OCC3(C(=O)O)CN(C(=O)c4ccccc4)C3)ccc2n1` [Example 32], the inhibitory constant (Ki) was found to be 271 nM.

On to `COc1ccc2cc(OCC3(C(=O)O)CN(C(=O)c4ccccc4)C3)ccc2c1` [Example 20], for which the Ki amounted to 24.4 nM.

As to `O=C(c1ccc(Cl)cc1)N1CC(COc2ccc(-c3ccccc3)nn2)(C(=O)O)C1` [Example 47], the inhibition constant (Ki) came out at 69.3 nM.

As to `O=C(c1ccc(Cl)cc1)N1CC(COc2ccc(-c3ccc(Cl)cn3)cc2)(C(=O)O)C1` [Example 5], the Ki came out at 1.9 nM.

As to `CCCOc1ccc(OCC2(C(=O)O)CN(C(=O)Nc3cccc(Cl)c3Cl)C2)cc1` [Example 67, 1-{[(2,3-Dichlorophenyl)amino]carbonyl}-3-[(4-propoxyphenoxy)methyl]azetidine-3-carboxylic acid], the Ki came to 110 nM.

As for `COc1ccc2cc(OCC3(C#N)CN(C(=O)c4ccc(F)cc4)C3)ccc2c1` [Example 52, 1-(4-Fluorobenzoyl)-3-{[(6-methoxy-2-naphthyl)oxy]methyl}azetidine-3-carbonitrile], the inhibitory constant (Ki) came out at 182 nM.

Take `O=C(c1ccccc1)N1CC(COc2cnc(-c3ccc(Cl)cc3)cn2)(C(=O)O)C1` [Example 42]: the Ki amounted to 5 nM.

For `COc1ccc2nc(OCC3(C(=O)O)CN(C(=O)c4ccccc4)C3)ccc2c1` [Example 48], the Ki was determined as 79.7 nM.

On to `O=C(c1ccc(F)cc1)N1CC(COc2ccc(-c3ccc(Cl)cc3)cc2)(C(=O)O)C1` [Example 10], for which the Ki was found to be 3.1 nM.

For the origin of these results see patent US20080280877A1, “Azetidines” (Pfizer Inc, priority 2007, published 2008).
